Molecules are shown by their SMILES.

Sequence of glucosylceramide synthase (GCS) (Q16739 whole entry): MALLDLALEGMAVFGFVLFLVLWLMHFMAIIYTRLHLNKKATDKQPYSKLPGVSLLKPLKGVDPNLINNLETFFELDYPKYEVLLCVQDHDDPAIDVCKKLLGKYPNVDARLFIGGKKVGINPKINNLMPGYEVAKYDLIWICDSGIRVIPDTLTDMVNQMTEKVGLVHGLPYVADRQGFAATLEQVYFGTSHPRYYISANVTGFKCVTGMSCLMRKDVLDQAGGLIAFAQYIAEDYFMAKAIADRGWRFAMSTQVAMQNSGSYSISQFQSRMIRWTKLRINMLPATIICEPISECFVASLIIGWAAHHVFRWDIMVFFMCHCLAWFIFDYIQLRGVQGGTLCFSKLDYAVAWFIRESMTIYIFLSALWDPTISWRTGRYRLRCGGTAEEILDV

This experiment has as its target glucosylceramide synthase (GCS) (Homo sapiens (Human), UniProt Q16739). Briefly: UDP-Glo glucosylceramide synthase biochemical assay. As to conditions: endogenous GCS in Golgi preparations from human A375 malignant melanoma skin cells; C6 ceramide and UDP-glucose substrates; 20 h incubation at room temperature; UDP detected by luminescence. The source says:
A UDP-Glo™ glucosylceramide synthase biochemical assay was utilized to evaluate the effect of test compounds on the activity of endogenous levels of GCS enzyme contained within Golgi preparations isolated from human A375 malignant melanoma skin cells. The UDP-Glo™ glucosylceramide synthase assay uses UDP-Glucose as a nucleotide-glycosyl donor and ceramide as substrate acceptor molecules. In the reaction, glucosylceramide synthase (GCS) transfers glucose from UDP-Glucose to ceramide. Glucosylceramide and UDP are released as products.
Using Promega's UDP-Glo™ Glycosyltransferase assay kit (Promega Corporation, Madison, WI, USA (Promega)), GCS activity was indirectly measured by detecting the amount of UDP produced. An aliquot of GCS enzyme (1.5 μg crude golgi preparation, total protein) and titrated test compound were aliquoted to each well and incubated for 30 minutes at room temperature. […] An equivalent volume of substrate mixture was then added to each well. Following a 20 h incubation at room temperature to allow for GCS turnover of substrate, an equal volume of UDP detection reagent (Promega) was added to each well and incubated for an additional 75 minutes at room temperature to simultaneously convert the accumulated UDP product into ATP and generate light in a luciferase reaction. The generated light was detected using a luminometer. […] luminescence values (RLUs) were normalized to mean “min” and “max” effects, as determined on each plate. […] Values for % Emax and EC50 were determined by best-fitting the normalized data to a curve in Activity Base along a four-parameter logistic nonlinear regression (4PL) model (based on the Levenberg-Marquardt algorithm and defined by the equation below): […]
where: n is 4PMin (bottom of the curve); m is 4PMax (top of the curve); i is IP (inflection point of curve); and p is slope. See Levenberg, K., “A Method for the Solution of Certain Problems in Least Squares”, Quart. Appl. Math. 2, (1944), pp 164-168 and Marquardt, D., “An Algorithm for Least Squares Estimation on Nonlinear Parameters”, SIAM J. Appl. Math. 11, (1963) pp 431-441.
Consider `COc1ccc(-n2nc(C(=O)N3CCNCC4(CC4)C3)c3c2CCOC3)cc1` [Compound 8, 5,8-diazaspiro[2.6]nonan-8-yl-[1-(4-methoxyphenyl)-1,4,6,7-tetrahydropyrano[4,3-c]pyrazol-3-yl]methanone], for which a half-maximal response (EC50) required 1200 nM.

`COc1ccc(-n2nc(C(=O)N3CCN4CCC3CC4)c3c2CCC3)cc1C` [Compound 20, 1,4-diazabicyclo[3.2.2]nonan-4-yl-[1-(4-methoxy-3-methylphenyl)-1,4,5,6-tetrahydrocyclopenta[c]pyrazol-3-yl]methanone] registered an EC50 of 0.4 nM. This EC50 is about 3000-fold lower than that of the compound before.

For the compound `COc1ccc(-n2nc(C(=O)N3CCCNCC3)c3c2CCOC3)cc1` [Compound 6, 1,4-diazepan-1-yl-[1-(4-methoxyphenyl)-1,4,6,7-tetrahydropyrano[4,3-c]pyrazol-3-yl]methanone], the concentration giving a half-maximal response (EC50) came out at 360 nM.

For `COc1ccc(-n2nc(C(=O)N3CCN4CCC3CC4)c3c2CCC3)cc1Cl` [Compound 19, [1-(3-chloro-4-methoxyphenyl)-1,4,5,6-tetrahydrocyclopenta[c]pyrazol-3-yl]-(1,4-diazabicyclo[3.2.2]nonan-4-yl)methanone], the EC50 is 0.3 nM.

`O=C(c1nn(-c2cccc(Cl)c2)c2c1CCC2)N1CCN2CCC1CC2` [Compound 26, [1-(3-chlorophenyl)-1,4,5,6-tetrahydrocyclopenta[c]pyrazol-3-yl]-(1,4-diazabicyclo[3.2.2]nonan-4-yl)methanone] registered a half-maximal effective concentration (EC50) of 1.5 nM.

On to `COc1ccc(-n2nc(C(=O)N3CCN4CCC3C(F)(F)C4)c3c2CCOC3)cc1` (single isomer, unassigned) [Compound 2, [(5˜{R or S})-6,6-difluoro-1,4-diazabicyclo[3.2.2]nonan-4-yl]-[1-(4-methoxyphenyl)-1,4,6,7-tetrahydropyrano[4,3-c]pyrazol-3-yl]methanone], for which the EC50 was found to be 7700 nM.

`O=C(c1nn(-c2ccc(OC(F)F)cc2)c2c1COCC2)N1CCN2CCC1CC2` [Compound 5, 1,4-diazabicyclo[3.2.2]nonan-4-yl-[1-[4-(difluoromethoxy)phenyl]-1,4,6,7-tetrahydropyrano[4,3-c]pyrazol-3-yl]methanone]: the EC50 amounted to 29 nM. This EC50 is about 270-fold lower than that of the compound before.

On to `COc1ccc(-n2nc(C(=O)N3CCCN(C)CC3)c3c2CCOC3)cc1F` [Compound 15, [1-(3-fluoro-4-methoxyphenyl)-1,4,6,7-tetrahydropyrano[4,3-c]pyrazol-3-yl]-(4-methyl-1,4-diazepan-1-yl)methanone], for which the half-maximal effective concentration (EC50) was 730 nM.

In turn, `Cc1ccc(-n2nc(C(=O)N3CCN4CCC3CC4)c3c2CCC3)cc1Cl` [Compound 27, [1-(3-chloro-4-methylphenyl)-1,4,5,6-tetrahydrocyclopenta[c]pyrazol-3-yl]-(1,4-diazabicyclo[3.2.2]nonan-4-yl)methanone] had an EC50 of 0.3 nM.

For `COc1ccc(-n2nc(C(=O)N3CCCN(C)CC3)c3c2CCOC3)cc1C(F)(F)F` [Compound 14, [1-[4-methoxy-3-(trifluoromethyl)phenyl]-1,4,6,7-tetrahydropyrano[4,3-c]pyrazol-3-yl]-(4-methyl-1,4-diazepan-1-yl)methanone], the EC50 was determined as 320 nM.

`COc1ccc(-n2nc(C(=O)N3CCN4CCC3CC4)c3c2CCC3)cc1F` [Compound 18, 1,4-diazabicyclo[3.2.2]nonan-4-yl-[1-(3-fluoro-4-methoxyphenyl)-1,4,5,6-tetrahydrocyclopenta[c]pyrazol-3-yl]methanone] came in with an EC50 of 0.9 nM.

Consider `O=C(c1nn(-c2ccc(OC(F)F)c(Cl)c2)c2c1CCC2)N1CCN2CCC1CC2` [Compound 28, [1-[3-chloro-4-(difluoromethoxy)phenyl]-1,4,5,6-tetrahydrocyclopenta[c]pyrazol-3-yl]-(1,4-diazabicyclo[3.2.2]nonan-4-yl)methanone], for which the half-maximal effective concentration (EC50) worked out at 1.3 nM.

Take `COc1ccc(-n2nc(C(=O)N3CC[N@@]4CCC3C(F)(F)C4)c3c2CCC3)cc1C(F)(F)F` (single isomer, unassigned) [Compound 23, [S or R]-(6,6-difluoro-1,4-diazabicyclo[3.2.2]nonan-4-yl)-[1-[4-methoxy-3-(trifluoromethyl)phenyl]-1,4,5,6-tetrahydrocyclopenta[c]pyrazol-3-yl]methanone]: a half-maximal effect (EC50) was put at 66 nM.

`O=C(c1nn(-c2ccc(Cl)c(Cl)c2)c2c1CCC2)N1CCN2CCC1CC2` [Compound 24, 1,4-diazabicyclo[3.2.2]nonan-4-yl-[1-(3,4-dichlorophenyl)-1,4,5,6-tetrahydrocyclopenta[c]pyrazol-3-yl]methanone] gave an EC50 of 0.1 nM.

In turn, `COc1ccc(-n2nc(C(=O)N3CCN4CCC3C(F)(F)C4)c3c2CCOC3)cc1` (single isomer, unassigned) [Compound 3, [(5˜{S or R})-6,6-difluoro-1,4-diazabicyclo[3.2.2]nonan-4-yl]-[1-(4-methoxyphenyl)-1,4,6,7-tetrahydropyrano[4,3-c]pyrazol-3-yl]methanone] had an EC50 of 1400 nM.

`COc1ccc(-n2nc(C(=O)N3CCN4CCC3C(F)(F)C4)c3c2CCC3)cc1C(F)(F)F` (single isomer, unassigned) [Compound 22, [R or S]-(6,6-difluoro-1,4-diazabicyclo[3.2.2]nonan-4-yl)-[1-[4-methoxy-3-(trifluoromethyl)phenyl]-1,4,5,6-tetrahydrocyclopenta[c]pyrazol-3-yl]methanone] displayed an EC50 of 16 nM.

Consider `COc1ccc(-n2nc(C(=O)N3CCN4CCC3C4)c3c2CCOC3)cc1` (racemic) [Compound 10, Racemic-1,4-diazabicyclo[3.2.1]octan-4-yl-[1-(4-methoxyphenyl)-1,4,6,7-tetrahydropyrano[4,3-c]pyrazol-3-yl]methanone], for which the EC50 was 180 nM.

In turn, `COc1ccc(-n2nc(C(=O)N3CCN4CCC3CC4)c3c2CCOC3)cc1Cl` [Compound 16, [1-(3-chloro-4-methoxyphenyl)-1,4,6,7-tetrahydropyrano[4,3-c]pyrazol-3-yl]-(1,4-diazabicyclo[3.2.2]nonan-4-yl)methanone] yielded an EC50 of 2.2 nM.

`COc1ccc(-n2nc(C(=O)N3CCCNCC3C)c3c2CCOC3)cc1` (racemic) [Compound 7, Racemic-[1-(4-methoxyphenyl)-1,4,6,7-tetrahydropyrano[4,3-c]pyrazol-3-yl]-(2-methyl-1,4-diazepan-1-yl)methanone] yielded an EC50 of 250 nM.

In turn, `COc1ccc(-n2nc(C(=O)N3CCN4CCC3CC4)c3c2CCC3)cc1C(F)(F)F` [Compound 21, 1,4-diazabicyclo[3.2.2]nonan-4-yl-[1-[4-methoxy-3-(trifluoromethyl)phenyl]-1,4,5,6-tetrahydrocyclopenta[c]pyrazol-3-yl]methanone] yielded an EC50 of 0.1 nM.

Compound `COc1ccc(-n2nc(C(=O)N3CCC4CCC(C3)N4)c3c2CCOC3)cc1` (racemic) [Compound 12, Racemic-3,9-diazabicyclo[4.2.1]nonan-3-yl-[1-(4-methoxyphenyl)-1,4,6,7-tetrahydropyrano[4,3-c]pyrazol-3-yl]methanone] had an EC50 of 840 nM.

The compound `COc1ccc(-n2nc(C(=O)N3CCCN(C)CC3)c3c2CCOC3)cc1` [Compound 4, [1-(4-methoxyphenyl)-1,4,6,7-tetrahydropyrano[4,3-c]pyrazol-3-yl]-(4-methyl-1,4-diazepan-1-yl)methanone] registered an EC50 of 940 nM.

`O=C(c1nn(-c2ccc(F)c(Cl)c2)c2c1CCC2)N1CCN2CCC1CC2` [Compound 25, [1-(3-chloro-4-fluorophenyl)-1,4,5,6-tetrahydrocyclopenta[c]pyrazol-3-yl]-(1,4-diazabicyclo[3.2.2]nonan-4-yl)methanone] had a concentration giving a half-maximal response (EC50) of 1.3 nM.

`COc1ccc(-n2nc(C(=O)N3CCN4CCC3CC4)c3c2CCC3)cc1` [Compound 17, 1,4-diazabicyclo[3.2.2]nonan-4-yl-[1-(4-methoxyphenyl)-1,4,5,6-tetrahydrocyclopenta[c]pyrazol-3-yl]methanone]: a half-maximal effect (EC50) was put at 1.7 nM.

For `COc1ccc(-n2nc(C(=O)N3CCNCC(F)C3)c3c2CCOC3)cc1` (racemic) [Compound 13, Racemic-(6-fluoro-1,4-diazepan-1-yl)-[1-(4-methoxyphenyl)-1,4,6,7-tetrahydropyrano[4,3-c]pyrazol-3-yl]methanone], the EC50 amounted to 2500 nM.

The EC50 is the concentration needed to bring the measured effect to its halfway point. A higher EC50 goes with a less potent agent.

For the origin of these results see patent US20250171467A1, “FUSED PYRAZOLE AMIDE ANALOGS AS GLUCOSYLCERAMIDE SYNTHASE INHIBITORS” (Merck Sharp & Dohme LLC, priority 2022, published 2025).
